Laboratory results published in PubChem BioAssay AID248 (DTP/NCI, 2004).
Several values for one entry are separate records, joined by “and”; a condition that tells them apart may be missing. Identical values can stand only once. Inconclusive results and toxic doses are left out. Cut-off read from the data, not from the text of the source: active = T/C of 150% or more; inactive = T/C below 125%.

Test system: L1210 leukemia ip in BDF1 mice, survival T/C
Test: NCI In Vivo Anticancer Drug Screen. Data for tumor model L1210 Leukemia (intraperitoneal) in B6D2F1 (BDF1) mice
Conditions: endpoint: mean survival time, higher = longer survival
Method in brief: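 Read-out is survival time, reported as the treated-group measurement over the vehicle-control measurement.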

[1] = dose: 100.0 mg/kg/injection, schedule: Q01DX001 (ip), vehicle: carboxymethylcellulose (CMC)
[2] = dose: 200.0 mg/kg/injection, schedule: Q01DX001 (ip), vehicle: carboxymethylcellulose (CMC)
[3] = dose: 400.0 mg/kg/injection, schedule: Q01DX001 (ip), vehicle: carboxymethylcellulose (CMC)
[4] = dose: 100.0 mg/kg/injection, schedule: Q01DX001 (ip), vehicle: Klucel (hydroxypropylcellulose) (HPC)
[5] = dose: 200.0 mg/kg/injection, schedule: Q01DX001 (ip), vehicle: Klucel (hydroxypropylcellulose) (HPC)
[6] = dose: 400.0 mg/kg/injection, schedule: Q01DX001 (ip), vehicle: Klucel (hydroxypropylcellulose) (HPC)
[7] = dose: 100.0 mg/kg/injection, schedule: Q04DX002 (ip), vehicle: Klucel (hydroxypropylcellulose) (HPC)
[8] = dose: 200.0 mg/kg/injection, schedule: Q04DX002 (ip), vehicle: Klucel (hydroxypropylcellulose) (HPC)
[9] = dose: 400.0 mg/kg/injection, schedule: Q04DX002 (ip), vehicle: Klucel (hydroxypropylcellulose) (HPC)
[10] = dose: 100.0 mg/kg/injection, schedule: Q04DX003 (ip), vehicle: Klucel (hydroxypropylcellulose) (HPC)
[11] = dose: 200.0 mg/kg/injection, schedule: Q04DX003 (ip), vehicle: Klucel (hydroxypropylcellulose) (HPC)
[12] = dose: 400.0 mg/kg/injection, schedule: Q04DX003 (ip), vehicle: Klucel (hydroxypropylcellulose) (HPC)
[13] = dose: 100.0 mg/kg/injection, schedule: Q04DX003 (ip), vehicle: saline with Tween-80
[14] = dose: 200.0 mg/kg/injection, schedule: Q04DX003 (ip), vehicle: saline with Tween-80
[15] = dose: 100.0 mg/kg/injection, schedule: Q04DX003 (ip), vehicle: saline
[16] = dose: 200.0 mg/kg/injection, schedule: Q04DX003 (ip), vehicle: saline
[17] = dose: 400.0 mg/kg/injection, schedule: Q04DX003 (ip), vehicle: saline
[18] = dose: 25.0 mg/kg/injection, schedule: Q01DX009 (ip), vehicle: Klucel (hydroxypropylcellulose) (HPC)
[19] = dose: 50.0 mg/kg/injection, schedule: Q01DX009 (ip), vehicle: Klucel (hydroxypropylcellulose) (HPC)
[20] = dose: 100.0 mg/kg/injection, schedule: Q01DX009 (ip), vehicle: Klucel (hydroxypropylcellulose) (HPC)
[21] = dose: 200.0 mg/kg/injection, schedule: Q01DX009 (ip), vehicle: Klucel (hydroxypropylcellulose) (HPC)
[22] = dose: 400.0 mg/kg/injection, schedule: Q01DX009 (ip), vehicle: Klucel (hydroxypropylcellulose) (HPC)
[23] = dose: 100.0 mg/kg/injection, schedule: Q04DX002 (ip), vehicle: saline with Tween-80
[24] = dose: 200.0 mg/kg/injection, schedule: Q04DX002 (ip), vehicle: saline with Tween-80
[25] = dose: 400.0 mg/kg/injection, schedule: Q04DX002 (ip), vehicle: saline with Tween-80
[26] = dose: 25.0 mg/kg/injection, schedule: Q04DX003 (ip), vehicle: saline
[27] = dose: 50.0 mg/kg/injection, schedule: Q04DX003 (ip), vehicle: saline
[28] = dose: 100.0 mg/kg/injection, schedule: Q04DX002 (ip), vehicle: saline
[29] = dose: 200.0 mg/kg/injection, schedule: Q04DX002 (ip), vehicle: saline
[30] = dose: 400.0 mg/kg/injection, schedule: Q04DX003 (ip), vehicle: saline with Tween-80

Measured: T/C

OCC(Cc1ccc(Cl)cc1)N1CCCCC1 (stereo unspecified)
inactive: [1] 96 % of control | [2] 100 % of control | [3] 89 % of control

O=C(O)C1=NNC(C(=O)O)=NN1
inactive: [4] 92 % of control | [5] 100 % of control | [6] 104 % of control

Cc1cnc2c(N)nc(N)nc2n1
inactive: [7] 110 % of control | [8] 98 % of control | [9] 94 % of control

Nc1nc2nc(N=Nc3ccc(C(=O)O)cc3)[nH]c2c(=O)[nH]1
inactive: [10] 96 % of control | [11] 91 % of control | [12] 99 % of control

C=CCc1ccc(OC(=O)Nc2ccccc2Cl)c(OC)c1
inactive: [7] 96 % of control | [8] 96 % of control | [9] 92 % of control

Cc1ccc(N2C(=O)CC(c3ccccc3)C2C(=O)O)cc1 (stereo unspecified)
inactive: [7] 100 % of control | [8] 103 % of control | [9] 103 % of control

N/C(=N\O)c1ccc(Cl)cc1
inactive: [13] 104 % of control | [14] 98 % of control

OCC1OC(c2ccccc2)OC(CO)C(O)C1O (stereo unspecified)
inactive: [13] 88 % of control | [14] 88 % of control

O=c1[nH]c(C(F)(F)F)c(CCc2ccccc2)c(=O)[nH]1
inactive: [4] 103 % of control | [5] 110 % of control | [6] 107 % of control

Nc1cncc([N+](=O)[O-])c1N
inactive: [15] 98 % of control | [16] 96 % of control | [17] 94 % of control

O=C(CCl)Nc1ccc2c(c1)-n1cccc1C2=O
inactive: [18] 89 % of control | [19] 91 % of control | [20] 86 % of control | [10] 93 % of control | [11] 96 % of control | [12] 100 % of control

c1ccc2sc(SN3CCCCC3)nc2c1
inactive: [4] 103 % of control | [5] 97 % of control | [6] 94 % of control

CCOC1=NN(c2ccccc2)C(=O)C1
inactive: dose: 100.0 mg/kg/injection, schedule: Q01DX009 (ip), vehicle: saline with Tween-80 104 % of control | dose: 200.0 mg/kg/injection, schedule: Q01DX009 (ip), vehicle: saline with Tween-80 101 % of control | dose: 400.0 mg/kg/injection, schedule: Q01DX009 (ip), vehicle: saline with Tween-80 97 % of control

COc1cc(C#N)ccc1O
inactive: dose: 100.0 mg/kg/injection, schedule: Q01DX009 (ip), vehicle: gum acacia 106 % of control | dose: 100.0 mg/kg/injection, schedule: Q04DX003 (ip), vehicle: gum acacia 103 % of control | dose: 200.0 mg/kg/injection, schedule: Q01DX009 (ip), vehicle: gum acacia 106 % of control | dose: 200.0 mg/kg/injection, schedule: Q04DX003 (ip), vehicle: gum acacia 100 % of control | dose: 400.0 mg/kg/injection, schedule: Q01DX009 (ip), vehicle: gum acacia 90 % of control | dose: 400.0 mg/kg/injection, schedule: Q04DX003 (ip), vehicle: gum acacia 94 % of control

COc1cccc(/C=N/NC(=O)c2ccncc2)c1OC
inactive: [18] 97 % of control | [19] 101 % of control | [20] 92 % of control and 105 % of control

CC(C)P(=O)(OCc1ccccc1)C(C)C
inactive: [20] 97 % of control | [21] 94 % of control | [22] 89 % of control

CS(=O)NOCCCCONS(C)=O (stereo unspecified)
inactive: [23] 96 % of control and 89 % of control | [24] 96 % of control and 100 % of control | [25] 86 % of control

S=C(C#Cc1ccccc1)Nc1ccccc1
inactive: [23] 93 % of control | [24] 86 % of control

CCC(C1CCC(O)CC1)C(CC)C1CCC(C2=CC(=O)OC2)CC1 (stereo unspecified)
inactive: [26] 100 % of control | [27] 94 % of control | [15] 94 % of control

CC1=C(N2CCCC2)CCCC1=O
inactive: [28] 112 % of control | [29] 107 % of control

Cc1c(N)nc(Br)c2ccccc12
inactive: [13] 105 % of control | [14] 101 % of control | [30] 110 % of control

CCOC(=O)C1CCNC(=O)C1=O (stereo unspecified)
inactive: dose: 50.0 mg/kg/injection, schedule: Q01DX001 (ip), vehicle: saline 104 % of control | dose: 100.0 mg/kg/injection, schedule: Q01DX001 (ip), vehicle: saline 101 % of control | dose: 200.0 mg/kg/injection, schedule: Q01DX001 (ip), vehicle: saline 97 % of control

Cc1cc(N(C)C)cc(C)c1N=Nc1cc(Cl)ccc1Cl
inactive: [10] 94 % of control | [11] 96 % of control | [12] 87 % of control

CC1(C)OC2COC(c3cc(C(N)=O)n[nH]3)C2O1 (stereo unspecified)
inactive: [13] 97 % of control | [14] 100 % of control | [30] 100 % of control

Cc1cc2nc3ccc(=[N+](C)C)cc-3sc2cc1N
inactive: dose: 3.12 mg/kg/injection, schedule: Q01DX009 (ip), vehicle: saline 94 % of control | dose: 6.25 mg/kg/injection, schedule: Q01DX009 (ip), vehicle: saline 100 % of control | dose: 12.5 mg/kg/injection, schedule: Q01DX009 (ip), vehicle: saline 117 % of control | dose: 25.0 mg/kg/injection, schedule: Q01DX009 (ip), vehicle: saline 101 % of control | [26] 98 % of control | dose: 50.0 mg/kg/injection, schedule: Q01DX009 (ip), vehicle: saline 100 % of control | [27] 106 % of control

CNCCC(=O)C1CCC(OC)CC1 (stereo unspecified)
inactive: [28] 92 % of control | [29] 110 % of control

O=C(O)c1cnc(C(=O)O)cn1
inactive: [19] 98 % of control | [20] 87 % of control | [21] 91 % of control

COC1c2c(nc3ccccc3c2C(N)=O)-c2ccccc2C1(C)C (stereo unspecified)
inactive: [15] 89 % of control | [16] 103 % of control | [17] 94 % of control

CCOc1ccc(/C=N/NC(=O)Cc2cccc3ccccc23)cc1OC
inactive: [20] 95 % of control | [21] 98 % of control | [22] 97 % of control

CCCCCCCCCCCCCCCCCC(O)CCCCCCCCCCCCCCCCC
inactive: dose: 100.0 mg/kg/injection, schedule: Q04DX003 (ip), vehicle: acetone 94 % of control | dose: 200.0 mg/kg/injection, schedule: Q04DX003 (ip), vehicle: acetone 96 % of control | dose: 400.0 mg/kg/injection, schedule: Q04DX003 (ip), vehicle: acetone 86 % of control

CC(=O)c1cccc(O)c1
inactive: [23] 98 % of control | [24] 95 % of control | [25] 102 % of control

CN(C)C(=S)[S][Pb]([c]1ccccc1)([c]1ccccc1)[c]1ccccc1
inactive: dose: 5.0 mg/kg/injection, schedule: Q01DX001 (ip), vehicle: steriod suspending solution 104 % of control | dose: 10.0 mg/kg/injection, schedule: Q01DX001 (ip), vehicle: steriod suspending solution 100 % of control | dose: 20.0 mg/kg/injection, schedule: Q01DX001 (ip), vehicle: steriod suspending solution 105 % of control | dose: 40.0 mg/kg/injection, schedule: Q01DX001 (ip), vehicle: steriod suspending solution 96 % of control | dose: 80.0 mg/kg/injection, schedule: Q01DX001 (ip), vehicle: steriod suspending solution 102 % of control

CSc1nccc(Cl)n1
inactive: dose: 50.0 mg/kg/injection, schedule: Q01DX001 (ip), vehicle: carboxymethylcellulose (CMC) 105 % of control | [1] 102 % of control | [2] 96 % of control | [3] 91 % of control

CN(N)c1cc(=O)[nH]c(N)n1
inactive: [7] 101 % of control | [8] 97 % of control | [9] 92 % of control

c1ccc2c3c([nH]c2c1)CCC3
inactive: [1] 93 % of control | [2] 98 % of control | [3] 102 % of control

O=C(O)C1CC(c2ccccc2)C(=O)O1 (stereo unspecified)
inactive: [7] 100 % of control | [8] 100 % of control | [9] 96 % of control
